Measured values published in patent publication US7919481B2, “Inositol pyrophosphates, and methods of use thereof” (NormOxys, Inc., priority 2002, dated 2011).
Where two headings read alike, the source gives them in different places.

What was measured:
stripped hemoglobin = stripped hemoglobin (Homo sapiens, UniProt P68871); conditions: cited from earlier work
baker's yeast = assay type: in vitro ADME; conditions: pH 4.6
Method: ITPP was dissolved in a buffer solution of a pH 4.6 and heated in the presence of baker's yeast for 12 h at 45° C. Non selective hydrolysis of approximately 25% occurred.

[1] = 1-octanol/water partition coefficient Kow; assay type: physicochemical; conditions: after equilibration at 30 mM
Method: Partition coefficients relate to the distribution of a solute between two immiscible liquid phases and are defined as the ratios of concentrations (or molar fraction) of the distributed solute.
The partition coefficients for our compounds, Kow=[ITPP]1-octanol/[ITPP]water, were measured after equilibration at a concentration of 30 mM, close to the typical concentration employed for biological evaluations.

C57BL/6 mice = experiment: Tolerability of intraperitoneal injection in mice; assay type: in vivo; conditions: concentration of (up to) 120 mM
porcine whole blood = experiment: In vitro P50 of porcine whole blood with effector (iso-osmolar); assay type: cell-based, pig; conditions: for P50 mm Hg: control 33.5
Method: (§1) Two further effectors, kf133 and kf137, were tested in vitro for P50 shifts with porcine hemoglobin and whole blood. The compounds were well soluble. As usual, pH was adjusted to ˜7.0 and effector solution (2.5 mM) and hemoglobin (2.5 mM) were mixed at a 1:1 ratio. Whole blood and the effector solution were mixed at iso-osmolarity at pH=7. P50 values were measured as described in the previous experiments.

porcine hemoglobin = porcine hemoglobin (Sus scrofa, UniProt P02067); experiment: In vitro P50 of porcine free hemoglobin with effector; assay type: biochemical, pig; conditions: porcine free hemoglobin 2.5 mM, effector 2.5 mM, 1:1; for P50 mm Hg: control 20.4, 19.9
Method: as §1

[2] = Solubility of effector solutions; assay type: physicochemical; conditions: pH ~7.0
Method: as §1

circulating RBC = experiment: P50 shift of circulating RBC after (intraperitoneal) injection in mice; conditions: maximum; for shift in the Hb-O2 dissociation curve: IP injection
whole blood = experiment: In vitro incubation of whole blood of three species, summary statements; assay type: cell-based, human, mouse and pig; conditions: whole blood of human, mouse and pig, 60 mM
Method: (§2) As usual, pH's for the compound-solutions were adjusted to ˜7.0, osmolarities for both solutions were determined (325-373 mOsM) prior to effectors, and whole blood volumes at 1:1 ratios were incubated.

pig whole blood = experiment: In vitro P50 in whole blood after incubation with effector; assay type: cell-based; conditions: effector 60 mM
Method: as §2

mouse whole blood = experiment: as above; assay type: cell-based; conditions: effector 60 mM
Method: as §2

human whole blood = experiment: as above; assay type: cell-based; conditions: effector 60 mM
Method: as §2

[3] = Toxicity, general statements on the biological experiments; assay type: in vivo; conditions: general statement
[4] = Chemical hydrolysis of IHP-pyrophosphate at alkaline pH (31P-NMR); assay type: physicochemical
Method: Experiments designed to test IHP-pyrophosphate's resistance to chemical hydrolysis were conducted. ITPP N,N-dimethyl-cyclohexylammonium salt solutions were adjusted at pH 8.66, 10.20, 12.05 and 13.30. In order to avoid any damage to the NMR tubes due to the highly alkaline solutions, all samples were checked using ^31P-NMR at different time intervals against an external Ph3PO/DMSO solution. This method also avoided concentrating the samples and redissolving them in a deuterated solvent, which may have led to changes in the results. […] Observing this stability, we exposed the pH=13.30 sample to heat at 60° C. for 6 h. […] After 22 h at the same temperature, hydrolysis was only 19%. Facing this extreme stability to chemical hydrolysis we concentrated to dryness both solutions of pH 10.20 and 13.30 and dissolved them in D2O.

[5] = porcine whole blood, iso-osmolarity, pH=7

Sequence of porcine hemoglobin (P01965 whole entry partner): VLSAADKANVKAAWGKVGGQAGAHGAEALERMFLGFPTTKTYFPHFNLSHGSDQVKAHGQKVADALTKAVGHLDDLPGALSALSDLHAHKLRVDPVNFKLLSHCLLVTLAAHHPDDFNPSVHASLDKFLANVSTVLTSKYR
Sequence of porcine hemoglobin (P02067 2-147 limits assumed): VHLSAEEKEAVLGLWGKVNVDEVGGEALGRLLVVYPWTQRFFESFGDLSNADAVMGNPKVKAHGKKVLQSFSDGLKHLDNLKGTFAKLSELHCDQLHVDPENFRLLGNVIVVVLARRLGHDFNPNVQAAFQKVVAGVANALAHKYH
Sequence of stripped hemoglobin (P69905 2-142 partner limits assumed): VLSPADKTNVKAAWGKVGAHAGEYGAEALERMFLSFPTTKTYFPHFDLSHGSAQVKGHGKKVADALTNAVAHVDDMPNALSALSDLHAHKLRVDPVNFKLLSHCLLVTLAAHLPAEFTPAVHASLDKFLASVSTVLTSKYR
Sequence of stripped hemoglobin (P68871 2-147 limits assumed): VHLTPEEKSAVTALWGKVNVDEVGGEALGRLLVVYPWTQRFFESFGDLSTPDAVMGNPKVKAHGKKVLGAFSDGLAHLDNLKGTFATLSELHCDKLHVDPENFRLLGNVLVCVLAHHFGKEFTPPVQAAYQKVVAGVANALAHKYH

In the case of O=C(O)[C@@H](COP(=O)(O)O)OP(=O)(O)O [2,3-Diphosphoglycerate, 2,3-diphosph-D-glyceric acid], the “O2 half-saturation pressure P(O2)(½) of stripped hemoglobin” value (stripped hemoglobin; pH 7.4, 25° C.) is given as 12.0 mm Hg and the “O2 half-saturation pressure P(O2)(½) of stripped hemoglobin” value (stripped hemoglobin; pH 7.4, 37° C.) is given as 23.7 mm Hg.

For O=P1(O)OC2C3OP(=O)(O)OP(=O)(O)OC3C3OP(=O)(O)OP(=O)(O)OC3C2OP(=O)(O)O1 (stereo not shown) [ITPP, inositol tripyrophosphate], the “non selective enzymatic hydrolysis” value (baker's yeast) was “approximately 25%”.

With NC1CCCCCC1.NC1CCCCCC1.NC1CCCCCC1.NC1CCCCCC1.NC1CCCCCC1.NC1CCCCCC1.O=P1(O)OC2C3OP(=O)(O)OP(=O)(O)OC3C3OP(=O)(O)OP(=O)(O)OC3C2OP(=O)(O)O1 (stereo not shown) [cycloheptylammonium ITPP salt] the “Kow=[ITPP]1-octanol/[ITPP]water” value [1] was 0.0121.

In the case of NC1CCCCCCC1.NC1CCCCCCC1.NC1CCCCCCC1.NC1CCCCCCC1.NC1CCCCCCC1.NC1CCCCCCC1.O=P1(O)OP(=O)(O)O[C@H]2[C@H](O1)[C@@H]1OP(=O)(O)OP(=O)(O)O[C@@H]1[C@H]1OP(=O)(O)OP(=O)(O)O[C@H]21 [cyclooctylammonium ITPP salt], the “Kow=[ITPP]1-octanol/[ITPP]water” value [1] is reported as 0.462.

In the case of Hexanoy-IHP NN-DMCHA salt [kf137], the tolerability in mice (C57BL/6 mice) is reported as “well tolerated”, the “lysis of the RBC” value (porcine whole blood; porcine whole blood in vitro) is reported as “Noticeable lysis” and the “P50 mm Hg” value (porcine whole blood; [5]) is reported as 51.5 mm Hg. For the same compound, the “P50 Increase %” value (porcine hemoglobin) was 120%, the “P50 mm Hg” value (porcine hemoglobin) was 45.1 mm Hg and the “solubility” value [2] was “well soluble”.

With “IHP Cholesteryoxy Carbonyl Hepta N,N-Dimethyl Cyclohexyl Ammonium Salt [kf16.4]” the “right shift in the P50” value (circulating RBC; ip, 6 animals) was “up to 18%”.

In the case of “IHP Cholesteryoxy Carbonyl Hepta N,N-Dimethyl Cyclohexyl Ammonium Salt [kf96]”, the “shift in the Hb-O2 dissociation curve” value (circulating RBC; 30 mM) is reported as “up to 17%”, the “shift in the Hb-O2 dissociation curve” value (circulating RBC; 60 mM) is reported as “up to 24%” and the “right shift in the Hb-O2 dissociation curve, all blood samples” value (whole blood) is reported as 27%. For the same compound, the “P50 Increase %” value (pig whole blood; 1:1) was 27%, the “P50 mm Hg” value (pig whole blood; 1:1, control 32.2) was 41.1 mm Hg and the “P50 Increase %” value (mouse whole blood; 1:1) was 20%. For the same compound, the “P50 mm Hg” value (mouse whole blood; 1:1, control 36.7) was 43.9 mm Hg, the “P50 Increase %” value (human whole blood; 1:1) was 27% and the “P50 mm Hg” value (human whole blood; 1:1, control 22.1) was 28 mm Hg.

With “IHP monopyrophosphate hexasodium salt [kf133]” the tolerability in mice (C57BL/6 mice) was “well tolerated”, the “P50 Increase %” value (porcine whole blood; [5]) was 14.5% and the “P50 mm Hg” value (porcine whole blood; [5]) was 38.4 mm Hg. The “P50 Increase %” value (porcine hemoglobin) was 143%, the “P50 mm Hg” value (porcine hemoglobin) was 48.5 mm Hg and the “solubility” value [2] was “well soluble”. For the same compound, the toxicity / tolerability [3] was “non-toxic”.

For “N,N-Dimethyl cyclohexyl ammonium Salt of Myo-inositol 1,6:2,3:4,5-Tripyrophosphate”, the “hydrolysis (changes in 31P-NMR)” value ([4]; pH 8.66, 10.20, 12.05, after 3 days) was “No changes were observed”, the “change after concentration to dryness” value ([4]; pH 10.20, redissolved in D2O) was “remained unchanged” and the hydrolysis ([4]; pH=13.30, 60° C. for 6 h) was 13%. The hydrolysis ([4]; pH=13.30, 60° C., after 22 h) was 19%, the hydrolysis ([4]; pH=13.3, after 3 days) was 7% and the “change after concentration to dryness” value ([4]; pH=13.30, redissolved in D2O) was “completely converted to the IHP open form sodium salt”.
